What all share (type): functional
In assay [1] the test system is Aedes aegypti. Kind of assay: Larvicidal activity against third larval stage of Aedes aegypti assessed as mortality at 25 mg/L after 24 hr.
The test system of assay [2] is Aedes aegypti. Put plainly: Larvicidal activity against third larval stage of Aedes aegypti assessed as mortality at 50 mg/L after 24 hr.
In assay [3] the test system is Aedes aegypti. Put plainly: Larvicidal activity against third larval stage of Aedes aegypti assessed as mortality at 250 mg/L after 24 hr.
Assay [4] deals with Aedes aegypti. Put plainly: Larvicidal activity against third larval stage of Aedes aegypti assessed as mortality at 100 mg/L after 24 hr.
In assay [5] the test system is Aedes aegypti. Put plainly: Larvicidal activity against third larval stage of Aedes aegypti assessed as mortality at 500 mg/L after 24 hr.
In assay [6] the test system is Bemisia argentifolii. Kind of assay: Insecticidal activity against adult Bemisia argentifolii reared on compound-treated melon leaves assessed as layed eggs at 1000 mg/L applied as spray after 72 hr.
Assay [7] relates to Bemisia argentifolii. Put plainly: Insecticidal activity against adult Bemisia argentifolii reared on compound-treated melon leaves assessed as mortality at 1000 mg/L applied as spray after 72 hr.

For the compound `CC12CCC(CC1)C(C)(C)O2` [EUCALYPTOL], the mortality (commonly the percentage killed) at 25 µg/mL in the assay with Aedes aegypti [1] worked out at 10%. For the same compound, the mortality at 50 µg/mL with Aedes aegypti [2] came to 53%. For the same compound, in the assay with Aedes aegypti [3], the mortality at 250 µg/mL amounted to 100%. In the assay with Aedes aegypti [4], the mortality at 100 µg/mL amounted to 100%. Moreover, in the assay on Aedes aegypti [5], the mortality at 500 µg/mL was found to be 100%. In the assay on Bemisia argentifolii [6], the Activity came to 9.2%. The mortality at 1000 µg/mL in the assay on Bemisia argentifolii [7] was determined as 91.2%.

The record behind these values is ChEMBL document CHEMBL3045694, “Insecticidal activity and chemical composition of volatile oils from Hyptis martiusii Benth” (2003).
